Measured values reported in patent US10066272B2, “Human homeobox gene ventx and macrophage terminal differentiation and activation, compositions and methods thereof” (priority 2011, dated 2018).

Tests used:
primary monocytes = test: Monocyte to macrophage differentiation after siRNA transfection, surface markers by FACS; type: cell-based, human
Procedure: (A) knockdown of VentX expression in primary monocytes by RNA interference. Monocytes were transfected with siRNA against GFP or VentX through electroporation. VentX mRNA levels were determined by real time PCR at 3 days after transfection (left); VentX protein level was determined by western blotting at 4 days after transfection (right). (B) Effects of VentX knockdown on macrophage morphogenesis during M-CSF induced differentiation. Monocytes were transfected with either siGFP or siVentX and subsequently exposed to 100 ng/mL M-CSF. […] Magnification of photographs, ×200. Note: a portion of cells lost their original morphology during Wright-Giemsa staining procedure. (C) Effects of VentX knockdown on macrophage surface expression of CD71. […] Filled blue histogram represents the isotope control staining; red histogram represents monocytes transfected with siGFP; green histogram represents monocytes transfected with siVentX. (D) Bar graphs show mean+SD of 6 different experiments in (C). Paired t test was used to reveal the statistical significance. **p<0.01.
(A) Left panel: Flow cytometry analysis of indicated surface markers in monocytes transfected with siGFP or siVentX, respectively; right panel: bar graphs show the mean+SD of at least three separate experiments. *p<0.05; **p<0.01. (B) Effects of VentX knockdown on macrophage viability. Monocytes were transfected with either siGFP or siVentX and subsequently exposed to 100 ng/mL M-CSF for 3 days. Cells were then harvested and stained with PI and Annexin V and analyzed by flow cytometry. (C) Effects of VentX knockdown on phagocytosis. Monocytes were transfected with siGFP or siVentX. Phagocytosis assays were carried out as described in materials and methods. […]
Surface expression of CD71 was determined by FACS analysis at 4 days after siRNA transfection. […]
Peripheral blood mononuclear cells (PBMC) from healthy adult donors at Children's Hospital Boston were isolated by Ficoll density gradient centrifugation. […] The purity of freshly isolated CD14^+ monocytes was more than 95% as analyzed by flow cytometry. […]

[1] = system: allogenic naive CD4+ T cells; test: Mixed lymphocyte reaction; type: cell-based, human; details: irradiated transfected macrophages (FIG. 8F)
Procedure: Macrophages were generated through incubation of freshly isolated monocytes with 100 ng/mL M-CSF for 4 days. These macrophages were then transfected with siGFP or siVentX, respectively, and further cultured in RPMI 1640 medium for additional 3 days. Thereafter, cells were exposed to 1 μg/mL LPS plus 20 ng/mL γ-IFN for 6 hours. (A) Surface staining of CD40, CD80, CD86 and HLA-DR and intracellular staining of TNF-α and IL1-β were analyzed by flow cytometry. (B) Secreted TNF-α, IL1-β and IL12p70 from culture supernatants were determined with ELISA kits. (C) Reactive oxygen species (ROS) from siGFP or siVentX transfected macrophages were analyzed with fluorescence microscope (left) and flow cytometry (middle). […] (D) Nitrate level from siGFP and siVentX transfected macrophages. Data represent mean+SD of three different experiments. (E) Phagocytosis of siGFP and siVentX transfected macrophage. Red histogram represents transfection with siGFP; green histogram represents transfection with siVentX. Left panel: cells were incubated on ice; right panel: cells were incubated at 37° C. (F) Effects of VentX knockdown on mixed lymphocyte reaction. Irradiated macrophages that had been transfected with siGFP or siVentX were utilized to stimulate allogenic naïve CD4 T cells proliferation. The proliferation rates were represented by counts per minute (CPM). […]

Substance: siVentX: VentX siRNA, forward 5′-UUCAGAAUCGCCGCAUGAAACACAAACGG-3′ (SEQ ID NO:4), reverse SEQ ID NO:5 (antisense CCGUUUGUGUUUCAUGCGGCGAUUCUGAA; listed as RNA, chemistry not given here)
- macrophage differentiation by GM-CSF or IL3 (primary monocytes; monocytes, 100 ng/mL GM-CSF or IL3, CD71 at 4 days (FIG. 15)): blocked macrophage differentiation
- expression of macrophage phenotypic markers CD64, CD40, CD86, CD11b and CD11c (primary monocytes; transfected monocytes, M-CSF, compared with siGFP transfected control cells (FIG. 3A)): significantly down-regulated
- stimulation of allogeneic T cells proliferation [1]: less potent
